Measurements: patent US10151698B2, “Selection by compartmentalized screening” (Medical Research Council, priority 2003, dated 2018)

How the values were obtained:
[1] = Compartmentalisation of small molecules in water-in-fluorocarbon emulsions (epifluorescence microscopy); type: physicochemical; conditions: water-in-perfluorooctyl bromide emulsions mixed by vortexing; 24 hours after mixing
Description: FIG. 3. Compartmentalisation of small molecules in water-in-fluorocarbon emulsions. Water-in-perfluorooctyl bromide emulsions were made containing texas red (1 mM) and calcein (1 mM) in the aqueous phase by homogenisation as described in example 9. The two emulsions were mixed by vortexing and imaged by epifluorescence microscopy after 24 hours. No exchange of texas-red (red fluorescence) and calcein (green fluorescence) between microdroplets could be observed.
Water-in-fluorocarbon emulsions containing 95% (v/v) perfluorooctyl bromide, 5% (v/v) phosphate buffered saline containing the molecule of interest in solution, and 2% (w/v) C8F17C11H22OP(O)[N(CH2CH2)2O]2 (F8H11DMP) as surfactant were formed essentially as (Sadtler et al., 1996) by extrusion (15 times) through 14 μm filters (Osmonics) or by homogenising for 5 min at 25,000 r.p.m. using an Ultra-Turrax T8 Homogenizer (IKA) with a 5 mm dispersing tool. Emulsions were made containing a series of small fluorescent molecules dissolved in the aqueous phase at concentrations from […] to 2 mM. These molecules, including calcein, texas red, fluorescein, coumarin 102, 7-hydroxycoumarin-3-carboxylic acid and 7-diethylamino-4-methyl coumarin (coumarin 1), had molecular weights from 203 to 625 Da and Log P values—calculated using SRC's Log Kow/KowWin Program (Meylan and Howard, 1995)—ranging from −0.49 to 4.09. […]

[2] = molecular target: T1, human recombinant PTPIB, residues 1-322 (Homo sapiens, UniProt P18031); test: Screening for PTPIB inhibitors in water-in-oil emulsion microcapsules with fluorogenic substrate DiFMUP, multi-colour flow cytometry; type: biochemical; conditions: 100 μM compound, 37° C. for 30 min
T1 construct: human recombinant PTPIB, residues 1-322; purchased Biomol Research Laboratories, Inc
T1 sequence (P18031 1-322): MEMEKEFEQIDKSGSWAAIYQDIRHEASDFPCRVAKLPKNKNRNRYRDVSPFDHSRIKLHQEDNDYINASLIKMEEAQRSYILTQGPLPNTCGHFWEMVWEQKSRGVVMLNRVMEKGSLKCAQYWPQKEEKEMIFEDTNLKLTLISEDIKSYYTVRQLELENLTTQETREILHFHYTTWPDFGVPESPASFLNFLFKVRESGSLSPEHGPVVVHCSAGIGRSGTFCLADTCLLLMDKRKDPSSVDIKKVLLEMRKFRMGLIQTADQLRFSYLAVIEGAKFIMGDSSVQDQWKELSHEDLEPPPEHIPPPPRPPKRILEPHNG
Description: The syringes are fitted into the openings on both sides of the filter holder of the extruder. The compound mix is forced through the filter holder into the alternate syringe containing the decane/surfactant mix and directly forced back into the original syringe to complete one round of extrusion. In total, 7.5 rounds of extrusion are completed. The filled syringe is removed from the extruder and emptied into a 1.7 ml Axygen tube (# MCT-175-C, Axygen Scientific, Inc., Union City, Calif., USA).
The two emulsions are mixed by vortexing in ratios varying from 1:1000 to 1:1 (compound 2 emulsion: hydrocinnamic acid emulsion) and incubated at 37° C. for 30 min. Inhibitors reduce the amount of non-fluorescent substrate (DiFMUP) converted to the dephosphorylated product (DiFMU; excitation/emmission maxima 358/452 nm; blue fluorescence). […]
The double emulsions are then analysed by multi-colour flow cytometery using a MoFlo (Cytomation) flow cytometer. […]
50 μl of each of the compound mixtures is added sequentially to a solution of 1% (w/v) Span 60 and 1% (w/v) cholesterol in decane, made and held at 37° C. as example 1, whilst homogenising at 25,000 r.p.m. using an Ultra-Turrax T8 Homogenizer (IKA) with a 5 mm dispersing tool. […] Inhibitors reduce the amount of non-fluorescent substrate (DiFMUP) converted to the dephosphorylated product (DiFMU; excitation/emmission maxima 358/452 nm; blue fluorescence). […]

[3] = molecular target: T1, human recombinant PTPIB, residues 1-322; test: Screening for PTPIB inhibitors using microcapsules in microfluidic systems (DiFMUP, epifluorescence microscope); type: biochemical; conditions: Example 5; 100 μM compound solution; PTPIB 50 mU/ml; fused microcapsules run up to 2 min
Description: Microchannels are fabricated with rectangular cross-sections using rapid prototyping in poly(dimethylsiloxane) (PDMS) (McDonald and Whitesides, 2002) and rendered hydrophobic as (Song and Ismagilov, 2003). Syringe pumps were used to drive flows (Harvard Apparatus PHD 2000 Infusion pumps). For aqueous solutions, 50 μl Hamilton Gastight syringes (1700 series, TLL) with removeable needles of 27-gaugeare used with 30-gauge Teflon tubing (Weico Wire and Cable). For the carrier fluid, 1 ml Hamilton Gastight syringes (1700 series, TLL) are used with 30-gauge Teflon needles with one hub from Hamilton (Song and Ismagilov, 2003). The carrier fluid is 9% (v/v) C6F11C2H4OH in perfluorodecaline (PFD) (Song et al., 2003). All water-soluble reagents were dissolved in (25 mM HEPES, pH 7.4, 125 mM NaCl, 1 mM EDTA), a buffer compatible with PTPIB activity.
These three steams are continuously injected into a flow of water immiscible fluorocarbon carrier fluid (9% (v/v) C6FπC2H OH in PFD). Inlet channels for the aqueous solutions are […] wide and channel for PFD is 28 μm wide. […]
The channel immediately downstream of the point of droplet formation is winding with a peak to peak distance of 50 μm for a distance of 1 mm. […] Fluorescence of the microcapsules due to production of DiFMU (excitation/emmission maxima 358/452 nm; blue fluorescence) is measured using an epifluorescence microscope.

PTPIB = molecular target: T2, PTPIB (Homo sapiens, UniProt P18031); conditions: Johnson et al., 2002; cited from earlier work
T2 sequence (P18031 1-435): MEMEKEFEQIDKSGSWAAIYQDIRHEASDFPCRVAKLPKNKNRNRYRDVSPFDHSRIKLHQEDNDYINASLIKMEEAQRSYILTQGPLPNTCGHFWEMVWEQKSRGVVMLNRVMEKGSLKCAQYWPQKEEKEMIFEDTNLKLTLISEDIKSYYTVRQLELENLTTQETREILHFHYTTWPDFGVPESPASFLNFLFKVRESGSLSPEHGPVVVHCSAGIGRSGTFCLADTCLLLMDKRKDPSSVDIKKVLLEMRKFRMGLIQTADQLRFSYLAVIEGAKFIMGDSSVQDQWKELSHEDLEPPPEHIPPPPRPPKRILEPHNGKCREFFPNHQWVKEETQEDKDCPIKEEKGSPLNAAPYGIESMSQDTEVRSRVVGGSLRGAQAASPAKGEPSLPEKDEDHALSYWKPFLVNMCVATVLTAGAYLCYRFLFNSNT

texas red
exchange between microdroplets/compartments [1]: No exchange

O=C(O)CN(CC(=O)O)Cc1cc2c(cc1O)Oc1cc(O)c(CN(CC(=O)O)CC(=O)O)cc1C21OC(=O)c2ccccc21 [calcein]
exchange between microdroplets/compartments [1]: No exchange

O=C(O)CCc1ccccc1 [hydrocinnamic acid]
blue fluorescence of microcapsules (DiFMU from dephosphorylation of DiFMUP by PTPIB) ([2]; Example 1, two emulsions mixed 1:1000 to 1:1): also show blue fluorescence | blue fluorescence of microcapsules (DiFMU from dephosphorylation of DiFMUP by PTPIB) ([2]; Example 2, mixtures added sequentially to one oil phase): also show blue fluorescence | fluorescence of the microcapsules due to production of DiFMU [3]: exhibiting blue fluorescence | PTPIB inhibitor or not (PTPIB): not a PTPIB inhibitor
